In one series the target is T1, human TLR8 (Homo sapiens, UniProt Q9NR97).
T1 sequence (Q9NR97 27-1041): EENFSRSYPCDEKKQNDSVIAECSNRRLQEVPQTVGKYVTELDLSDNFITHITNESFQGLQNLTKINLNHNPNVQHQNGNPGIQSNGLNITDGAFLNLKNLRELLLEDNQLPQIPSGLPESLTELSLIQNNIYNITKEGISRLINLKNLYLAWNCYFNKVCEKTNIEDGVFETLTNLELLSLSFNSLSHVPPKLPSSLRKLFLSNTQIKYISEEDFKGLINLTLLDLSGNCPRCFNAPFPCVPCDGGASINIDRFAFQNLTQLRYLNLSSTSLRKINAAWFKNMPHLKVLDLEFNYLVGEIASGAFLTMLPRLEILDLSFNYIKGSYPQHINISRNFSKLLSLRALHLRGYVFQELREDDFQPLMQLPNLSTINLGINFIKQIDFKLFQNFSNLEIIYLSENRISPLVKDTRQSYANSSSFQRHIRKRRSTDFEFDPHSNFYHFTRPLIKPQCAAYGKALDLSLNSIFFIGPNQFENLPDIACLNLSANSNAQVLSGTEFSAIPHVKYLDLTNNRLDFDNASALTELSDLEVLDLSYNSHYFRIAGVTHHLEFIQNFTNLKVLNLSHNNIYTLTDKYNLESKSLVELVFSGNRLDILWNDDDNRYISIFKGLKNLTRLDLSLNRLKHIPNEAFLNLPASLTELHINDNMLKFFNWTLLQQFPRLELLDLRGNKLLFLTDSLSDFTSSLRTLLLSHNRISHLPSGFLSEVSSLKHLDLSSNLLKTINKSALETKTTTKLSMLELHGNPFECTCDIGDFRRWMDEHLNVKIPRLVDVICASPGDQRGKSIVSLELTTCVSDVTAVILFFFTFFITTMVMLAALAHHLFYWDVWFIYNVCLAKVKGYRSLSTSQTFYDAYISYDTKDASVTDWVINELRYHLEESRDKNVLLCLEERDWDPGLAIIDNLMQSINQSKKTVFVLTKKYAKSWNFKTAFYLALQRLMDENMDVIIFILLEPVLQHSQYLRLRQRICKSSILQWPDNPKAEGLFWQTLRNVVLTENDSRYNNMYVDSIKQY
The experiment in a line: HEK293-Blue-hTLR-8 cells assay (SEAP reporter, R848 stimulation). The class given is cell-based. The conditions noted are these: HEK293-Blue-hTLR8 cells, R848 ligand, 20 hrs; read-out: HEK/hTLR8 IC50. On the procedure:
The following tests were carried out in order to determine the activity of the compounds of formula (I), (Ia) or (Ib) in HEK293-Blue-hTLR-7/8/9 cells assay.
HEK293-Blue-hTLR-8 Cells Assay:
A stable HEK293-Blue-hTLR-8 cell line was purchased from InvivoGen (Cat. #: hkb-htlr8, San Diego, California, USA). These cells were originally designed for studying the stimulation of human TLR8 by monitoring the activation of NF-κB. A SEAP (secreted embryonic alkaline phosphatase) reporter gene was placed under the control of the IFN-β minimal promoter fused to five NF-κB and AP-1-binding sites. The SEAP was induced by activating NF-κB and AP-1 via stimulating HEK-Blue hTLR8 cells with TLR8 ligands. Therefore the reporter expression was declined by TLR8 antagonist under the stimulation of a ligand, such as R848, for incubation of 20 hrs. The cell culture supernatant SEAP reporter activity was determined using QUANTI-Blue™ kit (Cat. #: rep-qb1, Invivogen, San Diego, Ca., USA) at a wavelength of 640 nm, a detection medium that turns purple or blue in the presence of alkaline phosphatase.
HEK293-Blue-hTLR8 cells were incubated at a density of 250,000˜450,000 cells/mL in a volume of 170 μL in a 96-well plate in Dulbecco's Modified Eagle's medium (DMEM) containing 4.5 g/L glucose, 50 U/mL penicillin, […], […], 2 mM L-glutamine, 10% (v/v) heat-inactivated fetal bovine serum with addition of 20 μL test compound in a serial dilution in the presence of final DMSO at 1% and 10 μL of 60 uM R848 in above DMEM, perform incubation under 37° C. in a CO2 incubator for 20 hrs. Then 20 μL of the supernatant from each well was incubated with 180 μL Quanti-blue substrate solution at 37° C. for 2 hrs and the absorbance was read at 620-655 nm using a spectrophotometer. The signaling pathway that TLR8 activation leads to downstream NF-κB activation has been widely accepted, and therefore similar reporter assay was modified for evaluating TLR8 antagonist.

The nature of series [1]: Human microsomal stability assay. The class given is in vitro ADME. The conditions noted are these: human liver microsomes, 1 μM test compound, 0.5 mg/mL protein, 37° C.; low <7.0, medium 7.0-16.2, high 16.2-23.2. On the procedure:
Human Microsomal Stability Assay
Human liver microsomes (Cat. NO.: 452117, Corning, USA) were preincubated with test compound for 10 minutes at 37° C. in 100 mM potassium phosphate buffer, pH 7.4. The reactions were initiated by adding NADPH regenerating system. The final incubation mixtures contained 1 μM test compound, 0.5 mg/mL liver microsomal protein, 1 mM MgCl2, 1 mM NADP, 1 unit/mL isocitric dehydrogenase and 6 mM isocitric acid in 100 mM potassium phosphate buffer, pH 7.4. After incubation times of 0, 3, 6, 9, 15 and 30 minutes at 37° C., 300 μL of cold ACN (including internal standard) was added to 100 μL incubation mixture to terminate the reaction. Following precipitation and centrifugation, 100 uL supernatant will be taken out and added 300 uL water. The amount of compound remaining in the samples was determined by LC-MS/MS. Controls of no NADPH regenerating system at zero and 30 minutes were also prepared and analyzed. The results were categorized as: low (<7.0 mL/min/kg), medium (7.0-16.2 mL/min/kg) and high (16.2-23.2 mL/min/kg).

For the compound `C[C@@H]1CN(c2ccc(C#N)c3ncccc23)C[C@@H]2CCN(Cc3ncc(N4CCNCC4)cc3F)CCN21` [Example 23, 5-[(4R,10aS)-8-[(3-fluoro-5-piperazin-1-yl-2-pyridyl)methyl]-4-methyl-1,3,4,6,7,9,10,10a-octahydropyrazino[1,2-d][1,4]diazepin-2-yl]quinoline-8-carbonitrile], at human TLR8, the IC50 is 8.3 nM. Also, the “CL (h)” value in series [1] is on record as 8.8 mL/min/kg.
The corresponding values for `C[C@@H]1CN(c2ccc(C#N)c3ncccc23)C[C@@H]2CCN(Cc3ccc(N4CCNCC4)nc3)CCN21` [Example 17, 5-[(4R,10aS)-4-methyl-8-[(6-piperazin-1-yl-3-pyridyl)methyl]-1,3,4,6,7,9,10,10a-octahydropyrazino[1,2-d][1,4]diazepin-2-yl]quinoline-8-carbonitrile] are 3.4 nM and 9.2 mL/min/kg.
Consider `C[C@@H]1CN(c2ccc(C#N)c3ncccc23)C[C@@H]2CCN(Cc3cnc(N4CCNCC4)cn3)CCN21` [Example 15, 5-[(4R,10aS)-4-methyl-8-[(5-piperazin-1-ylpyrazin-2-yl)methyl]-1,3,4,6,7,9,10,10a-octahydropyrazino[1,2-d][1,4]diazepin-2-yl]quinoline-8-carbonitrile], for which the IC50 on human TLR8 stood at 8.6 nM. The “CL (h)” value in series [1] was found to be 9.9 mL/min/kg.
The like results for `C[C@@H]1CN(c2cc(=O)n(C)c3ncccc23)C[C@@H]2CCN(Cc3ccc4c(c3)CNCC4)CCN21` [Example 28, 4-[(4R,10aS)-4-methyl-8-(1,2,3,4-tetrahydroisoquinolin-7-ylmethyl)-1,3,4,6,7,9,10,10a-octahydropyrazino[1,2-d][1,4]diazepin-2-yl]-1-methyl-1,8-naphthyridin-2-one] were, in that order, 51.1 nM and 6.5 mL/min/kg.
The like results for `CO[C@@H]1CN(c2cnc(CN3CC[C@H]4CN(c5ccc(C#N)c6ncccc56)C[C@@H](C)N4CC3)c(F)c2)C[C@H]1N` [Example 24, 5-[(4R,10aS)-8-[[5-[(3R,4R)-3-amino-4-methoxy-pyrrolidin-1-yl]-3-fluoro-2-pyridyl]methyl]-4-methyl-1,3,4,6,7,9,10,10a-octahydropyrazino[1,2-d][1,4]diazepin-2-yl]quinoline-8-carbonitrile] were, in that order, 7.9 nM and 9.4 mL/min/kg.
In the case of `C[C@@H]1CN(c2ccc(C#N)c3ncccc23)C[C@@H]2CCN(Cc3cnc(N4CCNCC4)nc3)CCN21` [Example 14, 5-[(4R,10aS)-4-methyl-8-[(2-piperazin-1-ylpyrimidin-5-yl)methyl]-1,3,4,6,7,9,10,10a-octahydropyrazino[1,2-d][1,4]diazepin-2-yl]quinoline-8-carbonitrile], at human TLR8, the IC50 came to 4.9 nM. The “CL (h)” value in series [1] amounted to 9.8 mL/min/kg.
The like results for `C[C@@H]1CN(c2ccc(C#N)c3ncccc23)C[C@@H]2CCN(Cc3ccc4c(c3)CCNC4)CCN21` [Example 11, 5-[(4R,10aS)-4-methyl-8-(1,2,3,4-tetrahydroisoquinolin-6-ylmethyl)-1,3,4,6,7,9,10,10a-octahydropyrazino[1,2-d][1,4]diazepin-2-yl]quinoline-8-carbonitrile] were, in that order, 4.2 nM and 8.2 mL/min/kg.
The like results for `C[C@@H]1CN(c2ccc(C#N)c3ncccc23)C[C@@H]2CCN(Cc3ccc(N4CCOC[C@H](N)C4)cn3)CCN21` [Example 21, 5-[(4R,10aS)-8-[[5-[(6R)-6-amino-1,4-oxazepan-4-yl]-2-pyridyl]methyl]-4-methyl-1,3,4,6,7,9,10,10a-octahydropyrazino[1,2-d][1,4]diazepin-2-yl]quinoline-8-carbonitrile] were, in that order, 86.9 nM and 8.5 mL/min/kg.
Consider `C[C@@H]1CN(c2ccc(C#N)c3ncccc23)C[C@@H]2CCN(Cc3cncc(N4CCNCC4)c3)CCN21` [Example 16, 5-[(4R,10aS)-4-methyl-8-[(5-piperazin-1-yl-3-pyridyl)methyl]-1,3,4,6,7,9,10,10a-octahydropyrazino[1,2-d][1,4]diazepin-2-yl]quinoline-8-carbonitrile], for which, at human TLR8, the IC50 amounted to 12.1 nM.
The same measure, in the same setting: under `C[C@@H]1CN(c2ccc(C#N)c3ncccc23)C[C@@H]2CCN(Cc3ccc(N4CCNCC4)cn3)CCN21` [Example 19, 5-[(4R,10aS)-4-methyl-8-[(5-piperazin-1-yl-2-pyridyl)methyl]-1,3,4,6,7,9,10,10a-octahydropyrazino[1,2-d][1,4]diazepin-2-yl]quinoline-8-carbonitrile] stands 10.2 nM.

For the origin of these results see patent US12421240B2, “Hydropyrazino[1,2-d][1,4]diazepine compounds for the treatment of autoimmune disease” (Hoffmann-La Roche Inc., priority 2019, dated 2025).
